Results: ChEMBL document CHEMBL1135899, “Design, synthesis, and evaluation of opioid analogues with non-peptidic beta-turn scaffold: enkephalin and endomorphin mimetics” (J Med Chem, 2002)

Legend:
Opioid receptor = Opioid receptor (Rattus norvegicus, UniProt P33533+P34975+P33535); assay: Inhibition of [3H]-Naloxone binding to opioid receptor in rat cerebral cortex; type: tissue-based
[1] = target: T1, Opioid receptor (Rattus norvegicus) (UniProt P33533+P34975+P33535); assay: Inhibition of [3H]naloxone binding to opioid receptor in rat cerebral cortex at 1 uM; type: tissue-based
[2] = target: T1, Opioid receptor (Rattus norvegicus); assay: Inhibition of [3H]naloxone binding to opioid receptor in rat cerebral cortex at 0.1 uM; type: tissue-based
[3] = target: delta opioid receptor (Homo sapiens) (UniProt P41143); assay: Displacement of [3H]DPDPE from human delta opioid receptor at 0.1 uM
[4] = target: Mu-type opioid receptor (Homo sapiens) (UniProt P35372); assay: Ability to displace [3H]DAMGO from human Opioid receptor mu 1 at 0.1 uM.
[5] = target: Kappa-type opioid receptor (Homo sapiens) (UniProt P41145); assay: Ability to displace [3H]-U 69593 from human Opioid receptor kappa 1 at 0.1 uM
[6] = target: Mu-type opioid receptor (Homo sapiens) (UniProt P35372); assay: Ability to displace [3H]-DAMGO from human Opioid receptor mu 1 at 0.1 uM

T1 sequence (P33533 whole entry, looked up): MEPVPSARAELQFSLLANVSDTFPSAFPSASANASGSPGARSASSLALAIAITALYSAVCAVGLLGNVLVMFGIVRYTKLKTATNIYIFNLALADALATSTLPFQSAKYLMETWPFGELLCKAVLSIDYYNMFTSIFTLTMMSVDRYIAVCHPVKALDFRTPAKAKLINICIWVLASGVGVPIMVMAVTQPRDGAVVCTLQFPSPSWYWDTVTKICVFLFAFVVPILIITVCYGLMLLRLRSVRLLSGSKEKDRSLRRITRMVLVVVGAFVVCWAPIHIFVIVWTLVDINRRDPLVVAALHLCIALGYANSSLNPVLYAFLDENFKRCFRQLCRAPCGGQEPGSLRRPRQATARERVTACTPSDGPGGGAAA
T1 sequence (P33535 whole entry, looked up): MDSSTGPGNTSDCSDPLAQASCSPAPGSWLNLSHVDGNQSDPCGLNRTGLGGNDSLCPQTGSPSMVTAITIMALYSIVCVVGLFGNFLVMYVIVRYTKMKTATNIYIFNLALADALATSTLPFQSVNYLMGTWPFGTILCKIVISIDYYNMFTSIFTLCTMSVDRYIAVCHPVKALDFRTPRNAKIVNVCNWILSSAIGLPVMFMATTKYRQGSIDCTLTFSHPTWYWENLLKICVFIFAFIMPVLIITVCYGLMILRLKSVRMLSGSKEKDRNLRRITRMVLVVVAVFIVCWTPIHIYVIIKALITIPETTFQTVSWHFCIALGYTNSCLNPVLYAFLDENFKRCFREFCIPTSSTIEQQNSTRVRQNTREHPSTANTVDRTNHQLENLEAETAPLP
T1 sequence (P34975 whole entry, looked up): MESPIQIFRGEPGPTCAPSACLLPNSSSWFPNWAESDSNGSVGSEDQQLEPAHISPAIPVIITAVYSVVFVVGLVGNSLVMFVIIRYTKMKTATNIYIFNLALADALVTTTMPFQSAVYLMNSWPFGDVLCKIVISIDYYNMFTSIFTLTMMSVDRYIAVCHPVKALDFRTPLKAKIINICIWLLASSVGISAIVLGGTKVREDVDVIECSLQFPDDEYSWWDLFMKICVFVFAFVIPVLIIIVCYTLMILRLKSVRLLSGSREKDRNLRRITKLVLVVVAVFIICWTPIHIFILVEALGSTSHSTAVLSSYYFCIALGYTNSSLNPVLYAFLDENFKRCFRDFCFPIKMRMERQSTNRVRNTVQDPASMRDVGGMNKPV
Sequence of delta opioid receptor (Homo sapiens) (P41143 whole entry, looked up): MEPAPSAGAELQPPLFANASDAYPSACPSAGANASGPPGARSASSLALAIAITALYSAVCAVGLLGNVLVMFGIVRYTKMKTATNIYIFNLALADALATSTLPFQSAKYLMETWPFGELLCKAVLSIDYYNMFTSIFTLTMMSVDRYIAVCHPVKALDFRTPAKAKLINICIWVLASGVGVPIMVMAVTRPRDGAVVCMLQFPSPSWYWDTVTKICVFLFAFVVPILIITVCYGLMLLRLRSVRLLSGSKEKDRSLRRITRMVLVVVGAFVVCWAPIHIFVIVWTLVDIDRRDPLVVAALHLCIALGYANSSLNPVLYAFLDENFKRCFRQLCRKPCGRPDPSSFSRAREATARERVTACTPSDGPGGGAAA
Sequence of Mu-type opioid receptor (Homo sapiens) (P35372 whole entry): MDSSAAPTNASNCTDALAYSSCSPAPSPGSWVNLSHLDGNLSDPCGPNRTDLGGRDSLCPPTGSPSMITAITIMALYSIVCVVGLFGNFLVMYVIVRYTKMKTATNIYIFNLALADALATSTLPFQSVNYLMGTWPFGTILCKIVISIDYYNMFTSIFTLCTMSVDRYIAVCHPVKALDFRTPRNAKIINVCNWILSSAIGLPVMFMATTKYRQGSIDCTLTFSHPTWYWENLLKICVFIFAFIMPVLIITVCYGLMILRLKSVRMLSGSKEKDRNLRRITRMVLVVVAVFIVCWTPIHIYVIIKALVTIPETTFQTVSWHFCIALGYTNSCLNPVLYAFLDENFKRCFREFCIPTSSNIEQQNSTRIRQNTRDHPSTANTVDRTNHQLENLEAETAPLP
Sequence of Kappa-type opioid receptor (Homo sapiens) (P41145 whole entry): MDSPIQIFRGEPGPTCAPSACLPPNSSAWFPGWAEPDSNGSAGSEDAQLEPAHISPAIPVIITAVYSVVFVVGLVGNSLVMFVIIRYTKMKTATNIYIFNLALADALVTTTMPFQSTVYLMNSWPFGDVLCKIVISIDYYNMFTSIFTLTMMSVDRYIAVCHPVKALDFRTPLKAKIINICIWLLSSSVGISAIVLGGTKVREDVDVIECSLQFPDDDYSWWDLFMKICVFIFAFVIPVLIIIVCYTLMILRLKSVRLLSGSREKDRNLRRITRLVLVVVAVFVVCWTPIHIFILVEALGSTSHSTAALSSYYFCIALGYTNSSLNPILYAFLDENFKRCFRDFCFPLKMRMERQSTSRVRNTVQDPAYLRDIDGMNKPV

Row | SMILES | IC50 (Opioid receptor) [nM] | inhibition [1] [%] | inhibition [2] [%] | Selectivity [3] [%] | Selectivity [4] [%] | Selectivity [5] [%] | Selectivity [6] [%]
1 | O=C1[C@H](Cc2ccccc2)N2C(=O)CCN(C(=O)OCCc3ccc(O)cc3)[C@H]2CN1CCc1ccccc1 | 80 | 96 |  |  |  |  | 
2 | CCCCCN1C[C@@H]2N(C(=O)OCCc3ccc(O)cc3)CCC(=O)N2[C@@H](Cc2ccccc2)C1=O | 149 | 84 |  |  |  |  | 
3 | CCCCCNC(=O)[C@H](CCc1ccccc1)NC(=O)CCNC(=O)OCCc1ccc(O)cc1 | > 1000 | < 10 |  |  |  |  | 
4 | O=C1[C@H](CCc2ccccc2)N2C(=O)CCN(C(=O)OCCc3ccc(O)cc3)[C@H]2CN1CCc1ccccc1 | 9 |  | 91 | < 10 | 101 | < 10 | 
5 | CCCCCN1C[C@@H]2N(C(=O)OCCc3ccc(O)cc3)CCC(=O)N2[C@@H](CCc2ccccc2)C1=O | 27 | 99 | 79 | < 10 |  | < 10 | 91
